Experimental data reported in US20250064773A1, “TARGETING ERO1 ALPHA WITH AURONE DERIVATIVES” (West Virginia University Board of Governors on behalf of …, priority 2021, published 2025).
Where two headings read alike, the source gives them in different places.

Test system: PC-9 non-small cell lung cancer cell line
Experiment: MTT viability assay, PC-9
Format: cell-based
Settings: 72 hours
Procedure: We utilized an MTT assay to determine the potency of the compounds for inhibiting cell growth. […] We next asked whether T151742 induced inhibition of cell growth was dependent on ERO1α expression. As shown in FIG. 6C two ERO1α deleted clones in the PC-9 cell line were isolated. Using an MTT assay to determine overall cellar viability, a non-targeted control (scramble), and both ERO1α knockout clones was subjected to treatment with T151742 for 72 hours (See FIG. 6D). […] Though only slight differences were observed between T151742 and EN-460 we tested the effects of these compounds in a clonogenic assay which is a better test for inhibition of self-renewal.
Cell Lines: PC-9 cell line used was obtained from Sigma Aldrich and grown in RPMI 1640 medium with 10% fetal bovine serum and 1% penicillin/streptomycin. HCC4006, U266, MM1.s, and Beas-2B cell lines were obtained from ATCC and cultured in either RPMI 1640 or DMEM with 10% fetal bovine serum and 1% penicillin/streptomycin. All cell lines were also checked for mycoplasma every six months and subjected to short tandem repeat (STR) analysis for cell line validation. CRISPR Cas9: CRISPR Guide RNA 2 targeting ERO1α and CRISPR Guide RNA 4 were purchased from Genscript in the pLentiCRISPR V2 plasmid containing puromycin/ampicillin selection marker. Lentivirus was made from HEK 293T cells by co-transfection with GuideRNA of interest, pVSVG, and pPAX2 plasmids. Lentivirus was collected after 48 hours and concentrated using 40% PEG8000. […] Plate was then read on the BioTek Cytation 5 at 530/590 nm. […] Plate was then read at 570 nm. Treated wells were all compared to DMSO control wells to calculate percent growth inhibition and the IC50 was calculated using GraphPad (log(inhibitor) vs growth inhibition). […] Images were then quantified using ImageJ. […] Cells were aliquoted at 1 million cells per PCR tube in PBS and heated in Bio-Rad T100 thermal cycler at indicated temperatures (RT, 46° C., 48° C., 50° C., 52° C., 54° C., 56°, 58° C., and 60° C.) for 3 minutes and aggregation temperature was determined by western blot analysis. […]

`CN(C)c1ccc(/C=C2\Oc3cc(O)ccc3C2=O)cc1` [Compound T151742] gave an IC50 (read-out: IC50, MTT assay, PC-9) of 14.1 ± 3.99 µM and an IC50 (non-targeted control (scramble), read-out: IC50, MTT assay, PC-9 WT) of 14.1 µM.
